Read-outs that look alike come from different tables or passages of the source. One block for each molecule: values may come before it.
Molecular target: T1, CFTR (Homo sapiens, UniProt P13569, DEL508-508)
T1 construct: endogenous in cells; host or cells: primary human bronchial epithelial cells from CF subjects (F508del/MF-HBE), differentiated at air-liquid interface
Test: HBE assay: Ussing chamber assay of CFTR-mediated short-circuit currents
Assay type: cell-based
Conditions: for EC50: read-out: HBE EC50
How it was run: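 CFTR-mediated Isc (μA/cm²) equals the peak response to apical 20 μM forskolin minus the residual after a 20 μM each BPO/GlyH-101/CFTR inhibitor 172 cocktail, recorded in Ussing chambers at Vhold 0 mV, 37 °C, pH 7.4, with 30 μM apical amiloride. Cells were F508del/MF HBE cultures preincubated 18-24 h with corrector (concentration range or 10 μM) plus 1 μM ivacaftor in 20% human serum.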

[1] = Table 11, read-out: HBE Max Activity (%)
[2] = Table 13, at 10 μM, read-out: HBE Activity at 10 μM (%)
[3] = Table 10, at 10 μM, read-out: HBE activity at 10 (μM) (%)
[4] = Table 12, at 10 μM, read-out: HBE Activity at 10 μM (%)
[5] = Table 12, read-out: HBE Max Activity (%)
[6] = HBE assay, read-out: HBE Max activity (%)
[7] = Table 13, read-out: HBE Max Activity (%)
[8] = read-out: HBE Activity at 10 μM (%)

T1 sequence (P13569 with tags, fused parts or gaps DEL508-508): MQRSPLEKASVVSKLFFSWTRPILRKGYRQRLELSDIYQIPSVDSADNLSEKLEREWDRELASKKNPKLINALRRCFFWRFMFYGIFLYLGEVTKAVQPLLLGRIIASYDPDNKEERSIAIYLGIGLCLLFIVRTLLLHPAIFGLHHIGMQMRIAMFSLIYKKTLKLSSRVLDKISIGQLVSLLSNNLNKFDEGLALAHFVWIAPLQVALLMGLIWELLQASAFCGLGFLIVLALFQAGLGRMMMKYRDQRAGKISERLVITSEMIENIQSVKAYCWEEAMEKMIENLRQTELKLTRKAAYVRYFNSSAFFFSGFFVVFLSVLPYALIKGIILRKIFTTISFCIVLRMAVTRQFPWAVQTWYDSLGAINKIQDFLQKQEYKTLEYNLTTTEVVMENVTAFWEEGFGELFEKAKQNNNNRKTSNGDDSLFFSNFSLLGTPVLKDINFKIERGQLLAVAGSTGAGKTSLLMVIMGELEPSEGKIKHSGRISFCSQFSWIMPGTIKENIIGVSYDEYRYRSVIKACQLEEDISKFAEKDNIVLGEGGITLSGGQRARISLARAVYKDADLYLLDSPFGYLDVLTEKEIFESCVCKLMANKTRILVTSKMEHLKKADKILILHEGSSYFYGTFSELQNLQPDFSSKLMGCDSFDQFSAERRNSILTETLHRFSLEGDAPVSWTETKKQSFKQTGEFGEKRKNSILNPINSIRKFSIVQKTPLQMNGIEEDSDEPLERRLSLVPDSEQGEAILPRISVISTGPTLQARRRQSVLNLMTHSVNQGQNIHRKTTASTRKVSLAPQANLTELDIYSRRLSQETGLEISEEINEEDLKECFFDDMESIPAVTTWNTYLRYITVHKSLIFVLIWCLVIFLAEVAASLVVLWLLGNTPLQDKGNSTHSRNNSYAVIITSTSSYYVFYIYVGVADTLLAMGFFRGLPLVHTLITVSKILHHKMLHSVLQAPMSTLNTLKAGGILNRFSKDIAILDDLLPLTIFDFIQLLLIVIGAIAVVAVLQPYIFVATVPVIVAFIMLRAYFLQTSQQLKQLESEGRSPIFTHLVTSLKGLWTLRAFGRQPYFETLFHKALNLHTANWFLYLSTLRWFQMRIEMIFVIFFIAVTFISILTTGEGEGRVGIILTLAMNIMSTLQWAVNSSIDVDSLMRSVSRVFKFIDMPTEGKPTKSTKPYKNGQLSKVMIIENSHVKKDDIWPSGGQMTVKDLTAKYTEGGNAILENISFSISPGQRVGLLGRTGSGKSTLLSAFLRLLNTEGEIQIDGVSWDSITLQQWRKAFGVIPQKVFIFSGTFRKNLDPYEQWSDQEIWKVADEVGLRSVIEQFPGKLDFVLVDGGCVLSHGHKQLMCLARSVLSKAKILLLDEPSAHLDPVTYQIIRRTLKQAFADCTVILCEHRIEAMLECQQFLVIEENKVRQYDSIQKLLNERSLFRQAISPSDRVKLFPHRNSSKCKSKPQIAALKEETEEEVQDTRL

EC50 (Table 11): < 1 µM
Emax [1]: > 60%
SMILES: Cc1cccc(C)c1-c1cc2nc(n1)NS(=O)(=O)c1cccc(c1)C(=O)N(Cc1cccc(C(C)(C)C)n1)[C@H](CC(C)(C)C)CO2 [Compound 731]

activation at 10 µM [2]: > 600%
SMILES: Cc1cccc(C)c1-c1cc2nc(n1)NS(=O)(=O)c1cccc(c1)C(=O)N(Cc1ccc(N3CC4(CCOC4)C3)cn1)[C@H](CC(C)(C)C)CO2 [Compound 1055]

activation at 10 µM [3]: > 60%
SMILES: COc1c(F)cc(CN2C(=O)c3cccc(c3)S(=O)(=O)Nc3nc(cc(-c4c(C)cccc4C)n3)OC[C@H]2CC(C)(C)C)cc1F [Compound 769]

activation at 10 µM [4]: > 600%
SMILES: Cc1cccc(C)c1-c1cc2nc(n1)NS(=O)(=O)c1cccc(c1)C(=O)N(Cc1nccnc1C)[C@H](CC(C)(C)C)CO2 [Compound 698]

EC50 (Table 12): < 1 µM
Emax [5]: > 60%
SMILES: Cc1cccc(C)c1-c1cc2nc(n1)NS(=O)(=O)c1cccc(c1)C(=O)N(Cc1cccc(N3CCCC3C(C)C)n1)[C@H](CC(C)(C)C)CO2 (stereo partly shown) [Compound 547]

EC50 (Table 10): < 1 µM
Emax (Table 10, read-out: HBE Max activity (%)): > 60%
SMILES: Cc1cccc(C)c1-c1cc2nc(n1)NS(=O)(=O)c1cccc(c1)C(=O)N(Cc1ncccc1N1CCCCC1)[C@H](CC(C)(C)C)CO2 [Compound 377]

EC50 (Table 12): < 1 µM
Emax [5]: > 60%
SMILES: Cc1cccc(C)c1-c1cc2nc(n1)NS(=O)(=O)c1cccc(c1)C(=O)N(Cc1cccc(N(C)C3CC4(CC4)C3)n1)[C@H](CC(C)(C)C)CO2 [Compound 581]

activation at 10 µM [4]: > 600%
SMILES: Cc1cccc(C(C)C)c1-c1cc2nc(n1)NS(=O)(=O)c1cccc(c1)C(=O)N(Cc1ncc(OC(C)C)cn1)[C@H](CC(C)C)CO2 [Compound 241]

activation at 10 µM [4]: > 600%
SMILES: COc1cccc(C)c1-c1cc2nc(n1)NS(=O)(=O)c1cccc(c1)C(=O)N(Cc1ncc(CC(C)C)cn1)[C@H](CC(C)(C)C)CO2 [Compound 576]

EC50 (Table 11): < 1 µM
Emax [1]: > 60%
SMILES: Cc1cccc(C)c1-c1cc2nc(n1)NS(=O)(=O)c1cccc(c1)C(=O)N(Cc1nccc(N(C)C3CCOCC3)n1)[C@H](CC(C)(C)C)CO2 [Compound 616]

EC50 (HBE assay): 1 to 3 µM
Emax [6]: > 60%
SMILES: Cc1cccc(C)c1-c1cc2nc(n1)NS(=O)(=O)c1cccc(c1)C(=O)N(Cc1ncc(O[C@H](C)C(C)C)cn1)[C@H](CC(C)C)CO2 [Compound 1434]

EC50 (HBE assay): < 1 µM
Emax [6]: > 60%
SMILES: Cc1cccc(C)c1-c1cc2nc(n1)NS(=O)(=O)c1cccc(c1)C(=O)N(Cc1ncc(OC3CC(C)(C)C3)cn1)[C@H](CC1CC1)CO2 [Compound 1454]

EC50 (Table 13): < 1 µM
Emax [7]: > 60%
SMILES: Cc1cccc(C)c1-c1cc2nc(n1)NS(=O)(=O)c1cccc(c1)C(=O)N(Cc1nc3c(ccn3C(C)C)cc1F)[C@H](CC(C)(C)C)CO2 [Compound 1124]

EC50 (Table 11): < 1 µM
Emax [1]: > 60%
SMILES: CCNc1cccc(CN2C(=O)c3cccc(c3)S(=O)(=O)Nc3nc(cc(-c4c(C)cccc4C)n3)OC[C@H]2CC(C)(C)C)n1 [Compound 738]

SMILES: COC[C@H]1CCCCN1c1cncc(CN2C(=O)c3cccc(c3)S(=O)(=O)Nc3nc(cc(-c4c(C)cccc4C)n3)OC[C@H]2CC(C)(C)C)n1 [Compound 1538]
activation at 10 µM [8]: > 60%

EC50 (Table 12): < 1 µM
Emax [5]: > 60%
SMILES: Cc1cccc(C)c1-c1cc2nc(n1)NS(=O)(=O)c1cccc(c1)C(=O)N(Cc1nccc(N(C)[C@@H]3CCC34CCC4)n1)[C@H](CC(C)(C)C)CO2 [Compound 451]

EC50 (HBE assay): < 1 µM
Emax [6]: > 60%
SMILES: Cc1cccc(C)c1-c1cc2nc(n1)NS(=O)(=O)c1cccc(c1)C(=O)N(Cc1cccc(N3CCOCC(C)(C)C3)n1)[C@H](CC(C)(C)C)CO2 [Compound 1414]

EC50 (HBE assay): < 1 µM
Emax [6]: > 60%
SMILES: CO[C@H](C)[C@@H]1CCCN1c1cncc(CN2C(=O)c3cccc(c3)S(=O)(=O)Nc3nc(cc(-c4c(C)cccc4C)n3)OC[C@H]2CC(C)(C)C)n1 [Compound 1451]

EC50 (Table 11): < 1 µM
Emax [1]: > 60%
SMILES: CCOc1cccnc1CN1C(=O)c2cccc(c2)S(=O)(=O)Nc2nc(cc(-c3c(C)cccc3C)n2)OC[C@H]1CC(C)(C)C [Compound 742]

SMILES: COCCN(CCOC)c1cccc(CN2C(=O)c3cccc(c3)S(=O)(=O)Nc3nc(cc(-c4c(C)cccc4C)n3)OC[C@H]2CC(C)(C)C)n1 [Compound 128, (11R)-12-[[6-[Bis(2-methoxyethyl)amino]-2-pyridyl]methyl]-6-(2,6-dimethylphenyl)-11-(2,2-dimethylpropyl)-2,2-dioxo-9-oxa-2λ^6-thia-3,5,12,19-tetrazatricyclo[12.3.1.14,8]nonadeca-1(18),4(19),5,7,14,16-hexaen-13-one]
EC50 (Table 10): < 1 µM
activation at 10 µM [8]: > 60%
Emax (read-out: HBE Max activity (%)): > 60%

activation at 10 µM [3]: > 60%
SMILES: Cc1cccc(C)c1-c1nc2nc(c1C)OC[C@@H](CC(C)(C)C)N1Cc3cc(F)c(O)c(F)c3OC1c1cccc(c1)S(=O)(=O)N2 (stereo partly shown) [Compound 763]

activation at 10 µM [2]: > 600%
SMILES: Cc1cccc(C)c1-c1cc2nc(n1)NS(=O)(=O)c1cccc(c1)C(=O)N(CC(=O)N1C[C@H](C)C[C@H](C)C1)[C@H](CC(C)(C)C)CO2 [Compound 181]

EC50 (Table 12): < 1 µM
Emax [5]: > 60%
SMILES: Cc1cccc(C)c1-c1cc2nc(n1)NS(=O)(=O)c1cccc(c1)C(=O)N(Cc1ncc(N3CC(C)(O)C3)cn1)[C@H](CC(C)(C)C)CO2 [Compound 586]

EC50 (Table 12): < 1 µM
Emax [5]: > 60%
SMILES: CC(C)=Cc1cccc(CN2C(=O)c3cccc(c3)S(=O)(=O)Nc3nc(cc(-c4c(C)cccc4C)n3)OC[C@H]2CC(C)(C)C)n1 [Compound 589]

activation at 10 µM (Table 11, at 10 μM, read-out: HBE Activity at 10 μM (%)): < 30%
SMILES: Cc1cccc(C)c1-c1cc2nc(n1)NS(=O)(=O)c1cccc(c1)C(=O)N(Cc1ccc(N3CCOCC3)cn1)C(CC(C)(C)C)CO2 (stereo not shown) [Compound 332]

EC50 (Table 12): < 1 µM
Emax [5]: > 60%
SMILES: Cc1cccc(C)c1-c1cc2nc(n1)NS(=O)(=O)c1cccc(c1)C(=O)N(CC(=O)NCC1CCCCC1)[C@H](CC(C)(C)C)CO2 [Compound 230]

EC50 (Table 13): < 1 µM
Emax [7]: > 60%
SMILES: Cc1cccc(C)c1-c1cc2nc(n1)NS(=O)(=O)c1cccc(c1)C(=O)N(Cc1cccc(N3CCC34CCOC4)n1)[C@H](CC(C)(C)C)CO2 (stereo partly shown) [Compound 532]

EC50 (Table 11): < 1 µM
Emax [1]: > 60%
SMILES: Cc1cccc(C)c1-c1cc2nc(n1)NS(=O)(=O)c1cccc(c1)C(=O)N(Cc1ccc(C3CCOCC3)cn1)[C@H](CC(C)(C)C)CO2 [Compound 52, (11R)-6-(2,6-Dimethylphenyl)-11-(2,2-dimethylpropyl)-2,2-dioxo-12-[(5-tetrahydropyran-4-yl-2-pyridyl)methyl]-9-oxa-2λ^6-thia-3,5,12,19-tetrazatricyclo[12.3.1.14,8]nonadeca-1(18),4(19),5,7,14,16-hexaen-13-one]

EC50 (Table 12): < 1 µM
Emax [5]: > 60%
SMILES: Cc1cccc(C)c1-c1cc2nc(n1)NS(=O)(=O)c1cccc(c1)C(=O)N(Cc1ncc(N3CC4(CCC4)C3)cn1)[C@H](CC(C)(C)C)CO2 [Compound 155, (11R)-12-[[5-(2-Azaspiro[3.3]heptan-2-yl)pyrimidin-2-yl]methyl]-6-(2,6-dimethylphenyl)-11-(2,2-dimethylpropyl)-2,2-dioxo-9-oxa-2λ^6-thia-3,5,12,19-tetrazatricyclo[12.3.1.14,8]nonadeca-1(18),4(19),5,7,14,16-hexaen-13-one]

activation at 10 µM [3]: > 60%
SMILES: Cc1cccc(C)c1-c1cc2nc(n1)NS(=O)(=O)c1cccc(c1)C(=O)N(Cc1ccccc1-c1csc(OC(C)C)n1)[C@H](CC(C)(C)C)CO2 [Compound 305]

EC50 (HBE assay): < 1 µM
Emax [6]: > 60%
SMILES: Cc1cccc(C)c1-c1cc2nc(n1)NS(=O)(=O)c1cccc(c1)C(=O)N(Cc1ncc(N3CC(C)C3)cn1)[C@H](CC(C)(C)C)CO2 [Compound 1403]

EC50 (HBE assay): < 1 µM
Emax [6]: > 60%
SMILES: Cc1cccc(C)c1-c1cc2nc(n1)NS(=O)(=O)c1cccc(c1)C(=O)N(Cc1cncc(NC3CCOC3)n1)[C@H](CC(C)(C)C)CO2 (stereo partly shown) [Compound 1353]

activation at 10 µM [2]: > 600%
SMILES: Cc1cccc(C)c1-c1cc2nc(n1)NS(=O)(=O)c1cccc(c1)C(=O)N(CC(=O)N1CCCC3(CCC3)C1)[C@H](CC(C)(C)C)CO2 [Compound 169]

EC50 (Table 11): < 1 µM
Emax [1]: > 60%
SMILES: Cc1cccc(C)c1-c1cc2nc(n1)NS(=O)(=O)c1cccc(c1)C(=O)N(Cc1nccc(C(C)(C)O)n1)[C@H](CC(C)(C)C)CO2 [Compound 813]

activation at 10 µM [4]: > 600%
SMILES: Cc1cccc(C)c1-c1cc2nc(n1)NS(=O)(=O)c1cccc(c1)C(=O)N(Cc1cncc(N3CCCC3(C)C)c1)[C@H](CC(C)(C)C)CO2 [Compound 282]

activation at 10 µM (HBE assay, 10 μM, read-out: HBE Activity at 10 μM (%)): > 60%
SMILES: COC[C@H]1COCCN1c1cccc(CN2C(=O)c3cccc(c3)S(=O)(=O)Nc3nc(cc(-c4c(C)cccc4C)n3)OC[C@H]2CC(C)(C)C)n1 [Compound 1399]

EC50 (Table 13): < 1 µM
Emax [7]: > 60%
SMILES: Cc1cccc(C)c1-c1cc2nc(n1)NS(=O)(=O)c1cccc(c1)C(=O)N(Cc1ncccc1F)[C@H](CC(C)(C)C)CO2 [Compound 1068]

activation at 10 µM [4]: > 600%
SMILES: Cc1cccc(C)c1-c1cc2nc(n1)NS(=O)(=O)c1cccc(c1)C(=O)N(Cc1ccc(C3CCCCC3)nc1)[C@H](CC(C)(C)C)CO2 [Compound 882]

EC50 (Table 11): < 1 µM
Emax [1]: > 60%
SMILES: Cc1cccc(C)c1-c1cc2nc(n1)NS(=O)(=O)c1cccc(c1)C(=O)N(Cc1ncccc1OC(C)C)[C@H](CC(C)(C)C)CO2 [Compound 741]

EC50 (Table 13): 1 to 3 µM
Emax [7]: > 60%
SMILES: COCCN(c1cccc(CN2C(=O)c3cccc(n3)S(=O)(=O)Nc3nc(cc(-c4c(C)cccc4C)n3)OC[C@H]2CC(C)(C)C)n1)C(C)C [Compound 1142]

— US20240150377A1, “MODULATORS OF CYSTIC FIBROSIS TRANSMEMBRANE CONDUCTANCE REGULATOR” (VERTEX PHARMACEUTICALS INCORPORATED, priority 2020, published 2024)
